Test: Human HepG2 cell viability assay in 384 well format
Format: toxicity, cell-based
Parameters: dose 125 nL, time 70.5 hour; cytotoxicity at 70.5 h: concentration not given beside the values
Conditions: HepG2 cells, read-out: Inhibition

Row | Compound | cytotoxicity at 70.5 h [%]
1 | CC(C)CCNC(=O)c1ccc2c(=O)n(-c3ccccc3)cnc2c1 | -25.3
2 | CCCOc1c(Cl)cc(C(=O)N2CCOC23CCN(C)CC3)cc1Cl | 7.29
3 | CN(C)c1ncc2c(n1)CCCC2NC(=O)C1CC1 (stereo unspecified) | -11.8
4 | CCc1nn(C)c(Cl)c1CN1CCCC(c2cc(O)nc(C)n2)C1 (stereo unspecified) | -0.921
5 | CCCc1cc(NCCn2cccn2)n2nccc2n1 | 1.84
6 | CC(C)Cc1ncc2c(n1)CN(C(=O)c1ccc(Cn3ccnc3)o1)C2 | -17.7
7 | CCOCCN(CCOCC)c1nc(C)nc2sccc12 | -0.429
8 | CCc1ncc2c(n1)CN(c1cc(NCCO)nc(N)n1)C2 | -3.48
9 | COc1ccc(OC2CCN(C(=O)[C@@H](N)Cc3c[nH]cn3)CC2)cc1 | 1.71
10 | CN(CCCOc1ccccc1Cl)C(=O)CN1C(=O)CCNC1=O | -3.2
11 | CCc1cc(N[C@@H]2CC[C@@H](N)C2)n2nc(C)c(C)c2n1 | -7.75
12 | COc1ccc2c(c1)C(C(=O)N(C)CCc1cnn(C)c1)CC(=O)N2 (stereo unspecified) | -8.46
13 | Cc1nnc(CN2CCN(C)C3(CCC(=O)N(CCO)CC3)C2)s1 (stereo unspecified) | 3.3
14 | CCSc1ncc(-c2nccn2CCN(C)C)cn1 | 8.9
15 | O=C(NCc1ccccn1)c1cc2n(n1)CCNC2 | -3.91
16 | Cc1cc(-c2cc(S(=O)(=O)N3C[C@H](C4CC4)[C@@H](N)C3)c(C)s2)on1 | 19.4
17 | COCc1nc(CN2CCN(c3ccc(OC)cc3)C(=O)C2C)no1 (stereo unspecified) | -27.3
18 | COCCN1CCCC(O)(CN2CCN(Cc3ccncc3)CC2)C1=O (stereo unspecified) | -8.23
19 | CCCN(Cc1ccc(S(=O)(=O)NC)cc1)Cc1ccccc1OC | 1.33

Row | Compound | cytotoxicity at 70.5 h [%]
20 | OCC1CCCCN1CCn1ccnc1-c1ccc2c(c1)OCCO2 (stereo unspecified) | -5.38
21 | Cc1ccsc1[C@@H]1CCN(C(=O)CCc2n[nH]c(C)c2C)C[C@H]1O | 0.289
22 | O=C(c1ccc(S(=O)(=O)N2CCSCC2)cc1)N1CCCCCC1 | 14.7
23 | CCn1ccnc1C1CCN(C(=O)C(O)c2ccc(OC)cc2)CC1 (stereo unspecified) | 4.82
24 | COCc1cc(N2CCc3onc(-c4cccc(OC)c4)c3C2)ncn1 | -5.12
25 | CN(C)S(=O)(=O)c1csc(C(=O)N2CCSCC2)c1 | -1.94
26 | CC(=O)N(C)C1CCN(c2ncc3c(n2)CCN3c2ccccc2)C1 (stereo unspecified) | -3.48
27 | COc1cccc(SCC(=O)N2CCC(N3CCCC(O)C3)CC2)c1 (stereo unspecified) | -2.74
28 | CCC(C(=O)NCc1ccncc1)N(c1cccc(Cl)c1)S(C)(=O)=O (stereo unspecified) | -2.79
29 | Cc1cc(C(=O)N2CCCC2)ccc1NS(C)(=O)=O | -7.84
30 | Cc1nc(N2C[C@H]3CNC[C@H]3C2)c2sccc2n1 | 5.86
31 | CSCCCn1ccnc1-c1cccc(C#N)c1 | 8.22
32 | CCN(CC)S(=O)(=O)c1csc(C(=O)N2CCC(C(N)=O)CC2)c1 | -2.86
33 | NC(=O)C1CCN(C(=O)c2cc(S(=O)(=O)N3CCCC3)cs2)CC1 | -8.68
34 | Cc1cc(C(=O)N2CCCCC2)ccc1NS(C)(=O)=O | -8.47
35 | CNC(=O)c1cc(OC)c(OC)cc1N(C)S(C)(=O)=O | -7.84
36 | O=C(Cc1nc(-c2ccncc2)n[nH]1)NCCCN1CCOCC1 | -10.7
37 | CN(C)S(=O)(=O)c1csc(C(=O)N2CCC(C(N)=O)CC2)c1 | -7.56
38 | COc1cccc([C@@H]2CCN(Cc3cn(C)c4ccccc34)C[C@H]2O)c1 | -10.7

Row | Compound | cytotoxicity at 70.5 h [%]
39 | O=C1NCC2(CCCN(C(=O)Nc3cccc(-c4cscn4)c3)CC2)O1 (stereo unspecified) | 36
40 | Cc1ccc(-c2cc(C(=O)NCCC3=CCCCC3)[nH]n2)o1 | -10.6
41 | Cc1ccc(-c2nn(-c3cccc(F)c3)cc2CN(CCO)CCO)o1 | -17.7
42 | CCC(=O)N1CCC(Oc2ccc(C(=O)NCCN(C)C)cc2Cl)CC1 | 7.41
43 | CC(C(=O)N1CCn2cncc2C1)N1CCCC1 (stereo unspecified) | -0.791
44 | COC(=O)CN1CCCn2nc(CCC(=O)N3CCCC3)cc2C1 | 2.63
45 | CCOC(=O)N1CCN(CC(=O)Nc2nnc(C)s2)CC1 | -6.46
46 | COc1ccnc(CN2CCC(O)(c3ccc(C)cn3)CC2)c1OC | -5.69
47 | c1coc(-c2nc3c(c(NCc4n[nH]c5c4CCC5)n2)CCNCC3)c1 | 7.72
48 | O=S(=O)(NCCNc1ccc(-n2cccn2)nn1)c1ccccc1 | -2.97
49 | COc1ccc(-c2c[nH]c(C3CC(=O)N(CC(C)C)C3)n2)cc1 (stereo unspecified) | -7.11
50 | O=C1N(c2ccc(Cl)cc2)Cc2n[nH]c(=O)n21 | -2.4
51 | Cc1ccc2c(c1)C(NC(=O)C1CCN(S(C)(=O)=O)CC1)CC(C)(C)O2 (stereo unspecified) | -2.93
52 | c1cnn(Cc2ccc(CN3CCC4(CCCNC4)C3)cc2)c1 (stereo unspecified) | 21.4
53 | CC(C)=Cc1c(-c2ccccc2)ncn1CCN(C)S(C)(=O)=O | 0.261
54 | CCN(c1ccc(C(=O)N2CCCCC2)cc1)S(=O)(=O)CC | -9.5
55 | O=C(c1cncc(N2CC[C@@]3(O)CCNC[C@H]3C2)n1)N1CCCC1 | -3.92
56 | CCN(CCO)C[C@@H]1CN(C(=O)c2ccc(C)s2)C[C@@H]1CO | 34.8

Reference: ChEMBL document CHEMBL3507680, “University of Dundee, Gates Library screen for HepG2 cell viability”
